Molecular target: human plasma kallikrein (Homo sapiens (Human), UniProt P03952)
Assay: In vitro enzyme inhibition of human plasma kallikrein (PFR-AMC cleavage)
Type: biochemical
Details: Pro-Phe-Arg-AMC substrate, 37° C., read-out: hPK IC50
Description: The ability of the compounds disclosed herein to inhibit human plasma kallikrein activity was quantified according to the procedures below.
A 10 mM solution of the test compound was made in DMSO. […] A control tube containing only DMSO is included. 16 μL of each compound test solution was combined with 384 μL of assay buffer (50 mM Tris-HCl pH 7.5, 150 mM NaCl, 0.01% Triton X-100) to yield a “4× test compound buffer stock”.
These solutions are hereby referred to as 4×hPK and 2×PFR-AMC, respectively.
50 μL was removed from this mixture and placed into duplicate wells on a Microfluor 1Black U-bottom microtiter plate (Thermo Scientific). This plate was incubated for 5 minutes at 37° C. To each well, 50 μL of pre-warmed 2×PFR-AMC was added to start the enzymatic reaction. Cleavage of PFR-AMC was monitored in a Biotek Synergy H4 reader set at 37° C. Readings are taken every 43 seconds for 1 hour. […] The IC50 is calculated using the Gen5 (Biotek Instruments).
The ability of the compounds in Table 3 to inhibit human plasma kallikrein activity was determined.

Sequence of human plasma kallikrein (P03952 391-638 limits assumed): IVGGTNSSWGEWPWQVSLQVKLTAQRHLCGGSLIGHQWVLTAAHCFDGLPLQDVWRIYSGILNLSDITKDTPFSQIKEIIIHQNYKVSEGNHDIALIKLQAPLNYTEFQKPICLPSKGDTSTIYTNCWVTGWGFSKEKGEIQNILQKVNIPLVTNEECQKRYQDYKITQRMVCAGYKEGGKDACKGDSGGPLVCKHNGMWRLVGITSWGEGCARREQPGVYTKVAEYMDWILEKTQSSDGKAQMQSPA
Sequence of human plasma kallikrein (P03952 20-390 partner limits assumed): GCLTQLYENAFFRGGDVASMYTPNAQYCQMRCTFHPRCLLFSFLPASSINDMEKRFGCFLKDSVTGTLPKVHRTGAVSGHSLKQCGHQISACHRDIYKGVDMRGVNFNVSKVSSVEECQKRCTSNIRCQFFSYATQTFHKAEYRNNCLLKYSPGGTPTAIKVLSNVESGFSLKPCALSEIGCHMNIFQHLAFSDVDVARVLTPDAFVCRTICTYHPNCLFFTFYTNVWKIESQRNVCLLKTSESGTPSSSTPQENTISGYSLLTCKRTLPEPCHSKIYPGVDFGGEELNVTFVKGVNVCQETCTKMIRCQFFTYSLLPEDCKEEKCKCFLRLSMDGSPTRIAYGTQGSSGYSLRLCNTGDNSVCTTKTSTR

In the case of “N-((3-chloro-6-fluoro-1H-indol-5-yl)methyl)-2-((2-isocyanoquinolin-6-yl)methyl)isonicotinamide [Example 130]”, the IC50 is reported as less than 100 nM.

Reference: patent US10266515B2, “Therapeutic inhibitory compounds” (LifeSci Pharmaceuticals, Inc., priority 2013, dated 2019)
